Measurements as given in paper PMC6222558, “Synthesis and Evolution of Berberine Derivatives as a New Class of Antiviral Agents against Enterovirus 71 through the MEK/ERK Pathway and Autophagy” (Molecules : A Journal of Synthetic Chemistry and Natural …, 2018).
pIC50: −log10 of the molar value. Structures can show the parent of a compound that is named as a salt. Values belong to the molecule of their own block, whether it stands above or below them.

Experiments:
Vero cells = assay: Cytotoxicity assay (CCK) in Vero cells; assay type: cell-based, African green monkey; details: Vero cells; calculated on the organic part; n = 3
Method: (§1) Vero cells were purchased from the American Type Culture Collection (ATCC, […], MD, USA), and were cultured in Minimum Essential Medium (MEM) supplemented with 10% fetal bovine serum (FBS) (GIBCO, Grand Island, NY, USA) and antibiotics (100 U/mL penicillin and […] streptomycin) at 37 °C in a 5% CO2 incubator. EV71 strain SHZH98 isolated from the throat swab sample of an HFMD case occurring in 1998 in China was kindly provided by Dr. Qi Jin (Institute of Pathogen Biology, Chinese Academy of Medical Science and Peking Union Medical School, Beijing, China), and JS-52 strain was a kind gift from Dr. Xiangzhong Ye (Beijing Wantai Biological Pharmacy Enterprise Co., Ltd., Beijing, China). The EV71 BrCr and H strains were purchased from the ATCC. All of EV71 strains were passaged in Vero cells.
Cytotoxicity of all target compounds in Vero cells was analyzed by CCK (TransGen Biotech, Beijing, China) assay. In brief, cells in exponential phase (3 × 10^4 cells/well) were seeded into 96-well culture plates and incubated overnight. Then, the medium was removed and different concentrations of all target compounds were applied in duple. After 48 h incubation, the cytotoxicity of all target compounds was determined by CCK assay. The signals were read at 450 nm on Enspire (Perkin Elmer, Waltham, MA, USA). The TC50 was defined as the concentration that inhibits 50% cellular growth in comparison with the controls. It is calculated by the Reed and Muench method.

[1] = test system: EV71 H strain (VR-1432, genotype C2); assay: CPE inhibition assay for anti-EV71, H strain; assay type: cell-based, enterovirus 71 (EV71); details: Enterovirus A, EV71; Vero cells; CPE; calculated on the organic part; n = 3; read-out: H Strain IC50
Method: (§2) Thus, all newly synthesized BBR analogues were screened for their anti-EV71 potencies in African green monkey kidney (Vero) cells taking BBR as the positive control. EV71 strains used in the present study include different genotype strains, such as H strain (VR-1432, genotype C2), BrCr strain (VR-1775, genotype A), and JS-52 and SHZH98 (genotype C4). The potency against EV71 strains above mentioned of each tested compound was evaluated by the combination of its IC50 and selectivity index (SI) value as the important therapeutic indication.
as §1
(§3) The anti-EV71 activities of all tested compounds were detected by the virus-induced CPE assay. Briefly, cells (3 × 10^4 cells/well) were plated into 96-well culture plates and incubated for 16 h. Then, remove the medium and infected cells with EV71 of 100 × TCID50 (50% tissue culture infective doses) in serum-free medium for 1 h at 37 °C. After that, the unbound viruses were removed and various concentrations of tested compounds were supplemented for incubation of another 72 h. […] TC50 defined as the concentration that leads to the 50% of CPE which determined by the same method in 72 h. In addition, the cells were stained the cells were colored with 0.5% crystal violet in 20% ethanol for 15 min at room temperature and the cells were imaged after rinsed with PBS.

[2] = test system: EV71 JS-52 strain (genotype C4); assay: CPE inhibition assay for anti-EV71, JS-52 strain; assay type: cell-based, enterovirus 71 (EV71); details: Enterovirus A, EV71; Vero cells; CPE; calculated on the organic part; n = 3; read-out: JS-52 Strain IC50
Method: as §2, §1, §3

[3] = test system: EV71 SHZH98 strain (genotype C4); assay: CPE inhibition assay for anti-EV71, SHZH98 strain; assay type: cell-based, enterovirus 71 (EV71); details: Enterovirus A, EV71; Vero cells; CPE; calculated on the organic part; n = 3; read-out: SHZH98 Strain IC50
Method: as §2, §1, §3

[4] = test system: EV71 BrCr strain (VR-1775, genotype A); assay: CPE inhibition assay for anti-EV71, BrCr strain; assay type: cell-based, enterovirus 71 (EV71); details: Enterovirus A, EV71; Vero cells; CPE; calculated on the organic part; n = 3; read-out: BrCr Strain IC50
Method: as §2, §1, §3

[5] = test system: four different genotype enterovirus 71 (EV71) strains; assay: CPE assay, summary over the four EV71 strains; assay type: cell-based; details: Enterovirus A, EV71, read-out: IC50 (Figure 1)
Method: as §2, §3

[6] = test system: MEK/ERK signaling pathway; design: method as in PMID 28081706; details: cited from earlier work

melting point: 218 to 220 °C
Compound: COc1cccc(C(=O)COc2cc3c(cc2OC)-c2cc4ccc(OC)c(OC)c4c[n+]2CC3)c1 (as salt: chloride) [5e, 2,9,10-Trimethoxy-3-m-methoxyphenylformylmethylenoxy protoberberine chloride]

melting point: 213 to 215 °C
Compound: COc1cc2c(cc1OCC(=O)c1ccc(C(F)(F)F)cc1)CC[n+]1cc3c(OC)c(OC)ccc3cc1-2 (as salt: chloride) [5f, 2,9,10-Trimethoxy-3-p-trifloromethylphenylformylmethylenoxy protober berine chloride]

melting point: 140 to 142 °C
Compound: COc1cc2c(cc1OC(=O)OCc1ccccc1)CC[n+]1cc3c(OC)c(OC)ccc3cc1-2 (as salt: chloride) [5g, 2,9,10-Trimethoxy-3-benzyloxyformyloxy protoberberine chloride]

Compound: COc1ccc2cc3[n+](cc2c1OC)CCc1cc2c(cc1-3)OCO2 [BBR, berberine]
TC50 (median toxic concentration) (Vero cells): 147 µM | pIC50 [1]: 4.67 | pIC50 [2]: 4.85 | pIC50 [3]: 4.55 | pIC50 [4]: 5.02 | pIC50 [5]: 4.59 to 5.07 | phosphorylation of MEK/ERK induced by EV71 infection [6]: could inhibit the phosphorylation of MEK/ERK
